From publication PMC7433010, “Exploration of multi‐target effects of 3‐benzoyl‐5‐hydroxychromen‐2‐one in Alzheimer’s disease cell and mouse models” (Aging Cell, 2020)

Tests used:
GADD45B = assay: Western blot of GADD45B in ∆K280 TauRD‐DsRed SH‐SY5Y cells; format: cell-based, human; details: 1 µM; induced untreated 65%, uninduced 100%
Protocol: (§1) Total proteins from ∆K280 TauRD-DsRed SH-SY5Y cells were obtained using a RIPA buffer containing 50 mM Tris-HCl (pH8.0), 150 mM NaCl, 2 mM EDTA (pH8.0), 50 mM NaF, 0.1% SDS, 0.5% sodium deoxycholate, 1% NP40, and a protease inhibitor cocktail (Sigma-Aldrich). After sonication and sitting on ice for 20 min, the lysates were centrifuged at 14,000 × g for 30 min at 4°C. Protein concentrations were determined using a protein assay kit (Bio-Rad, Hercules, CA, USA), with albumin as a standard. Total proteins (20 µg) were electrophoresed on 10% or 12% SDS-polyacrylamide gel and transferred onto polyvinylidene difluoride (PVDF) membranes (Sigma-Aldrich) through reverse electrophoresis. […] Subsequently, immune complexes were detected using a horseradish peroxidase-conjugated goat anti-mouse or goat anti-rabbit IgG antibody (1:5000; GeneTex, Irvive, CA, USA) and a chemiluminescent substrate (Millipore).

[1] = tested on: ∆K280 TauRD‐DsRed‐expressing SH‐SY5Y cells; assay: Neurite outgrowth analysis in ∆K280 TauRD‐DsRed SH‐SY5Y cells; format: cell-based, human; details: 1 µM
Protocol: On day 1, ∆K280 TauRD-DsRed-expressing SH-SY5Y cells were seeded on a 24-well plate in a density of 3 × 10^4 cells/well, with 10 µM retinoic acid (Sigma-Aldrich) added to induce neuronal differentiation. On the second day, the cells were treated with licochalcone A (1 µM), LM-031 (1 µM), or congo red (10 µM) for 8 h and ∆K280 TauRD-DsRed expression was induced as described. After seven days, the cells were washed with phosphate-buffered saline (PBS) and fixed in 4% paraformaldehyde in PBS for 15 min. After permeabilized with 0.1% Triton X-100 in PBS for 10 min and blocked by 3% BSA in PBS for 20 min, cells were stained with primary neuronal class III β-tubulin (TUBB3) antibody (1:1000; Covance, Princeton, NJ, USA) at 4°C overnight and secondary anti-rabbit Alexa Fluor ®555 antibody (1:1000; Invitrogen) at room temperature for 3 h. After nuclei were stained with DAPI for 30 min, neuronal images were captured using the high-content imaging system as described and analyzed using the Neurite Outgrowth Application Module (Molecular Devices).
To knock down CREB expression in ∆K280 TauRD-DsRed SH-SY5Y cells, lentiviral short hairpin RNA (shRNA) targeting CREB (TRCN0000226466), NRF2 (TRCN0000007558), and a negative control scrambled (TRC2.Void) were obtained from National RNAi Core Facility, IMB/GRC, Academia Sinica, Taipei, Taiwan. On day 1, cells were plated on 6-well plates (for protein analysis) or 24-well plates (for neurite outgrowth analysis) in the presence of retinoic acid as described. On the second day, the cells were infected with lentivirus (multiplicity of infection: 3) in medium with polybrene (8 µg/mL; Sigma-Aldrich). On day 3, the culture medium was changed and the cells were pretreated with LM-031 (1 µM) for 8 h, followed by induction of ∆K280 TauRD-DsRed expression. On day 9, the cells were collected for NRF2, CREB, pCREB, and cleaved CASP3 protein analysis or analyzed for neurite outgrowth as described.

ERK1/2 = assay: Western blot of ERK1/2 in ∆K280 TauRD‐DsRed SH‐SY5Y cells; format: cell-based, human
Protocol: as §1
Figure S4. ΔK280 TauRD-DsRed SH-SY5Y cells. […] On day 9, neurite outgrowth and caspase 3 activity were measured. In addition, expression of HSPB1, NRF2, and CREB pathways were assessed. (b) Relative AKT, pAKT, ERK, and pERK protein levels analyzed through immunoblotting. […]

sarkosyl‐insoluble Tau = assay: TEM of sarkosyl‐insoluble Tau from STZ‐treated 3 × Tg‐AD mice; format: in vivo, mouse; details: STZ/LM‐031 mice
From the text: Figure S7. Body weight, blood glucose, open field task, NeuN immunoreactivity, and TEM of sarkosyl-insoluble tau in STZ-treated 3×Tg-AD mice. (a) Body weight and blood glucose of the mice. […] (c) Representative IHC images for NeuN and intensity quantification in the hippocampus of mice. DG, dentate gyrus; CA1 and CA3, Cornu Ammonis areas 1 and 3. (d) TEM of sarkosyl-insoluble tau. p values, STZ vs. – STZ mice or STZ/LM-031 vs. STZ mice. *: p < 0.05, ^##: p < 0.01, ^##^#: p < 0.001. (one-way ANOVA with a post hoc Tukey test)

sarkosyl‐insoluble Tau aggregates by TEM (sarkosyl‐insoluble Tau): reduced Tau aggregates
SMILES: O=C(c1ccccc1)c1cc2c(O)cccc2oc1=O [LM‐031, 3‐benzoyl‐5‐hydroxychromen‐2‐one]
GADD45B protein level (GADD45B): 111% | neurite length ([1]; CREB‐specific shRNA‐infected cells, untreated 46 µm): 51 µm | neurite length ([1]; NRF2‐specific shRNA‐infected cells, untreated 42 µm): 46 µm | neurite length ([1]; scrambled shRNA‐infected cells, untreated 48 µm): 53 µm | ERK1/2 level (ERK1/2): not notably affected
